Results taken from patent publication US12065436B2, “Cardiac sarcomere inhibitors” (Cytokinetics, Inc., priority 2018, dated 2024).

Target: bovine cardiac myofibrils (full-length cardiac myosin ATPase in the native sarcomere) (Bos taurus (Bovine), UniProt Q9BE39)
Test: Skinned bovine cardiac myofibril ATPase assay (PK/LDH-coupled)
Format: biochemical
Conditions: Ca2+ activating to 75% of maximal rate; for CDMF75 IC15: concentration giving 15% inhibition; for IC50: read-out: CDMF75 IC50
Procedure, shortened: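 Inhibition of steady-state ATPase read at 340 nm through a PK/LDH-coupled NADH system (0.5 mM NADH, 1.5 mM PEP). Detergent-skinned bovine cardiac myofibrils, 1 mg/mL, were tested at pH 6.8 in PIPES/MgCl2 with 50 μM ATP and calcium adjusted to give pCa50 or pCa75 activation.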

Sequence of bovine cardiac myofibrils (full-length cardiac myosin ATPase in the native sarcomere) (Q9BE39 whole entry): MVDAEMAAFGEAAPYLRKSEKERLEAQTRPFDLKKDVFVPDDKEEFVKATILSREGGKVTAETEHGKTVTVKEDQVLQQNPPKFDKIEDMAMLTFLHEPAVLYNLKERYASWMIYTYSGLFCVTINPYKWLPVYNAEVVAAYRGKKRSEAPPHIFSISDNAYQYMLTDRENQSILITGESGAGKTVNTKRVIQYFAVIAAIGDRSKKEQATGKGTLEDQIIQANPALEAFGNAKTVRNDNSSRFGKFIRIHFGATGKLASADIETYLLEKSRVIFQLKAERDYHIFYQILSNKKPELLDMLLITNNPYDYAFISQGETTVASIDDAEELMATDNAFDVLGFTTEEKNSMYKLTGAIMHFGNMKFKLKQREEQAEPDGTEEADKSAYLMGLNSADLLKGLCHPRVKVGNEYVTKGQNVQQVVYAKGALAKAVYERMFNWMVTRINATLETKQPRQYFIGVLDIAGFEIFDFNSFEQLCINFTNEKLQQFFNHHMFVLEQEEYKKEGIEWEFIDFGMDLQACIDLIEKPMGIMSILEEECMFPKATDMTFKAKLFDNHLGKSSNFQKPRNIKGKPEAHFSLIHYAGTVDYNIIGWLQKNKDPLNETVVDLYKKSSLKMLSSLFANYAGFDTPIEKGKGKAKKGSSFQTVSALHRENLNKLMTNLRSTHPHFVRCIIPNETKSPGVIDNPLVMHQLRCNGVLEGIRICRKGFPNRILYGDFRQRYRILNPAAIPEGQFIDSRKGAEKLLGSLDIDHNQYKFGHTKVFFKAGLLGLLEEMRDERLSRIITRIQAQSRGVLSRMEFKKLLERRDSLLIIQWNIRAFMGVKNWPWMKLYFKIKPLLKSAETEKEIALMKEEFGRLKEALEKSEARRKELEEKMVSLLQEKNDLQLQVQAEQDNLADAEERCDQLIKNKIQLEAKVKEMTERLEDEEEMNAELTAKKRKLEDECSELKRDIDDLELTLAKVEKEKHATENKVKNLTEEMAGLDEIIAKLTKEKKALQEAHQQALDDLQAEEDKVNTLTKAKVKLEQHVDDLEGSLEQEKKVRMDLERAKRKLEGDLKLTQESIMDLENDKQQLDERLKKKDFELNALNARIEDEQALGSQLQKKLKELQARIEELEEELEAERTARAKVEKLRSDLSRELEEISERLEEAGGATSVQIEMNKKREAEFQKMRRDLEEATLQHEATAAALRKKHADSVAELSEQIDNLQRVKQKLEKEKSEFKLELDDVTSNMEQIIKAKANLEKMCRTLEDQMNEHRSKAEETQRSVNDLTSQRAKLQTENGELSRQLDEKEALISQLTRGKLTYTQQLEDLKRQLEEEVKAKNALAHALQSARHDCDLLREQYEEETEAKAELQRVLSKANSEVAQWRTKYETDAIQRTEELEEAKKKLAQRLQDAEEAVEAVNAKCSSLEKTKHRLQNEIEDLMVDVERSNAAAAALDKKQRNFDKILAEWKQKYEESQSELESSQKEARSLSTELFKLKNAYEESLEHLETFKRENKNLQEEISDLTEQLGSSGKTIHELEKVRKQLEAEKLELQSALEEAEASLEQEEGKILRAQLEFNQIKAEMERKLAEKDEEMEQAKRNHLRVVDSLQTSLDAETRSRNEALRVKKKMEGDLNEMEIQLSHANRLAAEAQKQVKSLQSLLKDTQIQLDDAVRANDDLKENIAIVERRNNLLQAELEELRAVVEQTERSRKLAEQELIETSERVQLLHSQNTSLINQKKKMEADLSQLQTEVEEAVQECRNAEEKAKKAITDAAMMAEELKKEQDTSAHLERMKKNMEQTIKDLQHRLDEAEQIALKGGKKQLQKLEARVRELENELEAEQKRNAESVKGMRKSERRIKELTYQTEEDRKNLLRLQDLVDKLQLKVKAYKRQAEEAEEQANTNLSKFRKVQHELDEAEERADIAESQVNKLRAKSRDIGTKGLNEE
Sequence of bovine cardiac myofibrils (full-length cardiac myosin ATPase in the native sarcomere) (P85100 whole entry partner): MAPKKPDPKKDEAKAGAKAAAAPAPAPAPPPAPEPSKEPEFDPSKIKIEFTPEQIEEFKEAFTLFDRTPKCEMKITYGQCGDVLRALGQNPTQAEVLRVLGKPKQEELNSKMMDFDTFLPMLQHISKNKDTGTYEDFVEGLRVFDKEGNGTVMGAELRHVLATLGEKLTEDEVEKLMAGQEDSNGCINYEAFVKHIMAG
Sequence of bovine cardiac myofibrils (full-length cardiac myosin ATPase in the native sarcomere) (Q3SZE5 whole entry partner): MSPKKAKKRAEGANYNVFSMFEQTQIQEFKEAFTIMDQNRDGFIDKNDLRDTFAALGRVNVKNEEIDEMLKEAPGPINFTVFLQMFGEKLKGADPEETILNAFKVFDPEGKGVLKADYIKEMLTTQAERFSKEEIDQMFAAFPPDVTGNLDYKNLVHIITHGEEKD

Row | CDMF75 IC15 [nM] | IC50 [nM] | SMILES
1 | 500 | 1900 | CCc1nc(-c2ccc3c(c2)CC[C@H]3NC(=O)OC2CCCC2)no1 [Compound 325, cyclopentyl (R)-(5-(5-ethyl-1,2,4-oxadiazol-3-yl)-2,3-dihydro-1H-inden-1-yl)carbamate]
2 | 600 | 2400 | O=C(N[C@@H]1CCc2cc(-c3noc(C4CC4)n3)ccc21)OCC1CC1 [Compound 326, cyclopropylmethyl (R)-(5-(5-cyclopropyl-1,2,4-oxadiazol-3-yl)-2,3-dihydro-1H-inden-1-yl)carbamate]
3 | 1800 | 8200 | COCCOC(=O)N[C@@H]1CCc2cc(-c3noc(C4CC4)n3)ccc21 [Compound 327, 2-methoxyethyl (R)-(5-(5-cyclopropyl-1,2,4-oxadiazol-3-yl)-2,3-dihydro-1H-inden-1-yl)carbamate]
4 | 1200 | > 39200 | O=C(N[C@@H]1CCc2cc(-c3noc(C4CC4)n3)ccc21)OC1CCCC1 [Compound 328, cyclopentyl (R)-(5-(5-cyclopropyl-1,2,4-oxadiazol-3-yl)-2,3-dihydro-1H-inden-1-yl)carbamate]
5 | 1700 | 7000 | CCc1nc(-c2ccc3c(c2)CC[C@H]3NC(=O)C2(C)CC2)no1 [Compound 329, (R)-N-(5-(5-ethyl-1,2,4-oxadiazol-3-yl)-2,3-dihydro-1H-inden-1-yl)-1-methylcyclopropane-1-carboxamide]
6 | 3800 | 17700 | CC1(C(=O)N[C@@H]2CCc3cc(-c4noc(C5CC5)n4)ccc32)CC1 [Compound 330, (R)-N-(5-(5-cyclopropyl-1,2,4-oxadiazol-3-yl)-2,3-dihydro-1H-inden-1-yl)-1-methylcyclopropane-1-carboxamide]
7 | 20000 | > 39200 | CC(=O)N1CC[C@@H]1C(=O)N[C@@H]1CCc2cc(-c3noc(C4CC4)n3)ccc21 [Compound 331, (R)-1-acetyl-N-((R)-5-(5-cyclopropyl-1,2,4-oxadiazol-3-yl)-2,3-dihydro-1H-inden-1-yl)azetidine-2-carboxamide]
8 | 39200 | > 39200 | CC(=O)N1CC[C@H]1C(=O)N[C@@H]1CCc2cc(-c3noc(C4CC4)n3)ccc21 [Compound 332, (S)-1-acetyl-N-((R)-5-(5-cyclopropyl-1,2,4-oxadiazol-3-yl)-2,3-dihydro-1H-inden-1-yl)azetidine-2-carboxamide]
9 | 300 | 900 | CCc1nc(-c2ccc3c(c2)CC[C@H]3NC(=O)OCC(F)F)no1 [Compound 333, 2,2-difluoroethyl (R)-(5-(5-ethyl-1,2,4-oxadiazol-3-yl)-2,3-dihydro-1H-inden-1-yl)carbamate]
10 | 600 | 1900 | O=C(N[C@@H]1CCc2cc(-c3noc(C4CC4)n3)ccc21)OCC(F)F [Compound 334, 2,2-difluoroethyl (R)-(5-(5-cyclopropyl-1,2,4-oxadiazol-3-yl)-2,3-dihydro-1H-inden-1-yl)carbamate]
11 | 19100 | > 39200 | CCc1nc(-c2ccc3c(c2)CC[C@H]3NC(=O)[C@H]2CCC(=O)N2)no1 [Compound 335, (R)-N-((R)-5-(5-ethyl-1,2,4-oxadiazol-3-yl)-2,3-dihydro-1H-inden-1-yl)-5-oxopyrrolidine-2-carboxamide]
12 | 30900 | > 39200 | O=C1CC[C@H](C(=O)N[C@@H]2CCc3cc(-c4noc(C5CC5)n4)ccc32)N1 [Compound 336, (R)-N-((R)-5-(5-cyclopropyl-1,2,4-oxadiazol-3-yl)-2,3-dihydro-1H-inden-1-yl)-5-oxopyrrolidine-2-carboxamide]
13 | 24700 | > 39200 | CCc1nc(-c2ccc3c(c2)CC[C@H]3NC(=O)[C@@H]2CCC(=O)N2)no1 [Compound 337, (S)-N-((R)-5-(5-ethyl-1,2,4-oxadiazol-3-yl)-2,3-dihydro-1H-inden-1-yl)-5-oxopyrrolidine-2-carboxamide]
14 | 39200 | > 39200 | O=C1CC[C@@H](C(=O)N[C@@H]2CCc3cc(-c4noc(C5CC5)n4)ccc32)N1 [Compound 338, (S)-N-((R)-5-(5-cyclopropyl-1,2,4-oxadiazol-3-yl)-2,3-dihydro-1H-inden-1-yl)-5-oxopyrrolidine-2-carboxamide]
15 | 400 | 1200 | CCc1nc(-c2ccc3c(c2)OC[C@H]3NC(=O)c2cc(C)no2)no1 [Compound 339, (S)-N-(6-(5-ethyl-1,2,4-oxadiazol-3-yl)-2,3-dihydrobenzofuran-3-yl)-3-methylisoxazole-5-carboxamide]
16 | 300 | 700 | CCc1nc(-c2ccc3c(c2)OC[C@H]3NC(=O)c2conc2C)no1 [Compound 340, (S)-N-(6-(5-ethyl-1,2,4-oxadiazol-3-yl)-2,3-dihydrobenzofuran-3-yl)-3-methylisoxazole-4-carboxamide]
17 | 1900 | 7300 | [2H]C([2H])([2H])c1noc(-c2ccc3c(c2)OC[C@H]3NC(=O)c2cnn(C)c2C)n1 [Compound 341, (S)-1,5-dimethyl-N-(6-(3-(methyl-d3)-1,2,4-oxadiazol-5-yl)-2,3-dihydrobenzofuran-3-yl)-1H-pyrazole-4-carboxamide]
18 | 8000 | > 39200 | [2H]C([2H])([2H])c1noc(-c2ccc3c(c2)OC[C@H]3NC(=O)c2nnn(C)n2)n1 [Compound 342, (S)-2-methyl-N-(6-(3-(methyl-d3)-1,2,4-oxadiazol-5-yl)-2,3-dihydrobenzofuran-3-yl)-2H-tetrazole-5-carboxamide]
19 | 1800 | 6600 | Cc1noc(-c2ccc3c(c2)OC[C@H]3NC(=O)c2cnn(C)c2C)n1 [Compound 343, (S)-1,5-dimethyl-N-(6-(3-methyl-1,2,4-oxadiazol-5-yl)-2,3-dihydrobenzofuran-3-yl)-1H-pyrazole-4-carboxamide]
20 | 8600 | > 39200 | Cc1noc(-c2ccc3c(c2)OC[C@H]3NC(=O)c2nnn(C)n2)n1 [Compound 344, (S)-2-methyl-N-(6-(3-methyl-1,2,4-oxadiazol-5-yl)-2,3-dihydrobenzofuran-3-yl)-2H-tetrazole-5-carboxamide]
21 | 900 | 3200 | Cc1cc(C(=O)N[C@@H]2COc3cc(-c4noc(C)n4)ccc32)on1 [Compound 346, (S)-3-methyl-N-(6-(5-methyl-1,2,4-oxadiazol-3-yl)-2,3-dihydrobenzofuran-3-yl)isoxazole-5-carboxamide]
22 | 500 | 1600 | Cc1nc(-c2ccc3c(c2)OC[C@H]3NC(=O)c2conc2C)no1 [Compound 347, (S)-3-methyl-N-(6-(5-methyl-1,2,4-oxadiazol-3-yl)-2,3-dihydrobenzofuran-3-yl)isoxazole-4-carboxamide]
23 | 500 | 1800 | COC(=O)N[C@@H]1COc2cc(-c3noc(C4CC4)n3)ccc21 [Compound 348, methyl (S)-(6-(5-cyclopropyl-1,2,4-oxadiazol-3-yl)-2,3-dihydrobenzofuran-3-yl)carbamate]
24 | 300 | 900 | CCc1nc(-c2ccc3c(c2)OC[C@H]3NC(=O)OC)no1 [Compound 349, methyl (S)-(6-(5-ethyl-1,2,4-oxadiazol-3-yl)-2,3-dihydrobenzofuran-3-yl)carbamate]
